Patent US10654896B2, “FoxP3-binding peptides and uses thereof” (FUNDACIÓN PARA LA INVESTIGACIÓN MÉDICA APLICADA, priority 2016, dated 2020)
Where a SMILES comes first, the peptide text is derived from it. [ ]: non-standard residue; d: D form.

Tests used:
human FOXP3 (FOXP3-6His) = target: T1, human FOXP3 (FOXP3-6His) (Homo sapiens, UniProt Q9BZS1); assay: Peptide binding to FOXP3 by surface plasmon resonance (SPR); conditions: peptides 1-20 μM; ratio to p60 (SEQ ID NO: 1)
T1 construct: 6xHis (C); made in house; host or cells: E. coli BL21 (DE3)
T1 sequence (Q9BZS1 1-431): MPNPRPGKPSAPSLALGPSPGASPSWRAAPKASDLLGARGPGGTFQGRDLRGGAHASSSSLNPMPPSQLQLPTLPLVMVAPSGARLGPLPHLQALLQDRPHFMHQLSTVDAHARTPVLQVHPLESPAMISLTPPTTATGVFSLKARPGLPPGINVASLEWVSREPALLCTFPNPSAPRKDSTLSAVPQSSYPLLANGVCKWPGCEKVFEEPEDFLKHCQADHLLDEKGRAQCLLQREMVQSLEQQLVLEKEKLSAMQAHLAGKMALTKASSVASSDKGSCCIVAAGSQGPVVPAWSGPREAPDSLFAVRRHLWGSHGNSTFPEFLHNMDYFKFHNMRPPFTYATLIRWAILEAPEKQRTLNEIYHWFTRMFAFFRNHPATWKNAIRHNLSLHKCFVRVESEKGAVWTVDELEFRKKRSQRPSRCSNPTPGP
Procedure, shortened: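 C-terminally 6His-tagged human FOXP3, expressed in E. coli BL21(DE3) and Ni-affinity purified, was amine-coupled to a GLM chip (ProteOn XPR36). Peptides at 1–20 μM injected in triplicate in PBS, 0.005% Tween 20, pH 7.4, at 30 μl/min, with interspot reference. Binding given as ratio to reference peptide p60.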

[1] = target: T2, FOXP3/Runx1 heterodimerization (Homo sapiens, UniProt Q9BZS1); assay: FOXP3/Runx1 heterodimerization inhibition (Alphascreen); type: biochemical; conditions: for inhibition at 2.5 µM: read-out: Foxp3-Runx1 Inhibition % inhibition (2.5 μM)
T2 construct: made in house; host or cells: E. coli BL21 (DE3)
T2 sequence (Q9BZS1 1-431): T1 sequence (Q9BZS1 1-431)
From the text: Plasmid pET20b FOXP3-His was generated to produce the human FOXP3 tagged with 6 histidines at the C terminus of the protein. Briefly, plasmid pDEST15-FOXP3 (provided by Dr. Casal, Madrid, Spain) was used as template to amplify FOXP3 by PCR using the primers Upper FOXP3 Ndel catatgcccaaccccaggc (SEQ ID NO: 55) and Lower FOXP3 […] (SEQ ID NO: 56). The resulting fragment was subcloned in pET20b at Ndel and NotI sites. pET45b His-Runx1 was obtained by PCR of activated human CD4 T cells obtained from healthy volunteers (after the signature of an informed consent) using the primers Upper Runx1 atgcgtatccccgtagatg (SEQ ID NO: 57) and Lower Runx1 […] (SEQ ID NO: 58) and the fragment was cloned in pcDNA3.1. Then, pET45b and pcDNA3.1-Runx1 were digested with BamHI and NotI and ligated to obtain pET45b-Runx1. Plasmids were used to transform BL21 cells (DE3; Novagen, Schwalbach, Germany) for the expression of the recombinant protein. The transformed BL21 cells were grown in LB medium at 37° C. (1 liter of final culture medium) (with ampicilin 0.1 mg/ml). Once the OD of the culture was between 0.5 and 1.0, IPTG (0.4 mM, final concentration) was added. Bacteria were then cultured overnight in agitation and centrifuged for 10 min at 8000 rpm. Cell pellet was then resuspended in 4 ml Tris-HCl 0.1 M and frozen at −80° C. Cell pellet was then thawed and incubated with lisozyme (25 KU) and a protease inhibitor cocktail for 15 min at 30° C. before cell lysis induced with a French-press. The resultant pool was then centrifuged during 20 min at 11.000 rpm). The recombinant protein was purified from the soluble fraction of French-press cell extracts by affinity chromatography (Histrap, Pharmacia) following manufacturer's instructions and using an FPLC platform (AKTA, Pharmacia). Plasmid pDEST15-FOXP3 encoding the fusion protein GST-FOXP3 (GST fused to the isoform A from human FOXP3 gene), was transformed into BL21 cells for the expression of the recombinant protein. GST-FOXP3 protein was purified from the soluble fraction of cell extracts obtained, as described above, by affinity chromatography (GSTrap; Amersham, Piscataway, N.J.) using a fast protein liquid chromatography platform (AKTA; Amersham) following manufacturer's instructions. The eluted proteins were desalted using Hitrap desalting columns (Pharmacia) and analyzed by SDS-PAGE using Coomassie blue (Bio-Safe Coomassie reagent; Bio-Rad, Hercules, Calif.) and by Western blot.
It has been described that dimerization of FOXP3 is required for its function as a transcriptional regulator. Moreover, interaction between FOXP3 and the transcription factor Runx1, is crucially required for normal hematopoiesis including thymic T-cell development, but also for Treg suppressor activity (Reviewed in Lozano et al, Front Oncol. 2013, 3:294). Both activities are mediated by the intermediate region of Foxp3, which is the area of interaction between P60 and Foxp3. Thus, we studied the effect of P60 and their mutants on the FOXP3/Runx1 heterodimerization, as well as FOXP3/FOXP3 homodimerization by Alphascreen technology according to the manufacturer's instructions (Perkin Elmer, Benelux). AlphaScreen™ is a bead-based technology that is designed to measure the proximity of donor and acceptor beads conjugated to biomolecules of interest.
To measure Foxp3-Runx1 interactions, Foxp3-GST and […] proteins were used.
Recombinant Runx1 expressed in E. Coli with a hexa-histidine tag (obtained as disclosed in section (1) above) was captured by nickel chelate acceptor beads following manufacturer's instructions, whereas the recombinant FOXP3 expressed with a GST tag was captured by glutathione donor beads (Perkin Elmer) following manufacturer's instructions. His-tagged Runx1 (46 nM final concentration) was incubated with 100 nM GST-FOXP3 and the peptides to be tested (added at different concentrations from 1 to 100 μM) for 1 h at room temperature. […]

| Molecule | Binding to Foxp3 Ratio binding Peptide/p60 (fold change) (human FOXP3 (FOXP3-6His)) | inhibition at 2.5 µM [1] | inhibition at 100 µM ([1]; read-out: Foxp3-Runx1 Inhibition % inhibition (100 μM)) |
| --- | --- | --- | --- |
| CSCC[C@H](NC(=O)[C@H](CCCCN)NC(=O)[C@H](CCCNC(=N)N)NC(=O)[C@H](Cc1ccccc1)NC(=O)[C@H](CO)NC(=O)[C@H](CCC(N)=O)NC(=O)[C@H](Cc1ccccc1)NC(=O)[C@H](C)NC(=O)[C@@H](N)CCCNC(=N)N)C(=O)N[C@@H](Cc1c[nH]c2ccccc12)C(=O)N1CCC[C@H]1C(=O)N[C@@H](Cc1ccccc1)C(=O)N[C@@H](Cc1ccccc1)C(=O)N[C@@H](C)C(=O)N[C@H](CCSC)C(=O)O [compound 47] (H-RAFQSFRKMWPFFA[dM]-OH; N-terminus and C-terminus assumed) | 1.7 fold change | 75% | – |
| CSCC[C@@H]1NC(=O)[C@H](C)NC(=O)[C@H](Cc2ccccc2)NC(=O)[C@H](Cc2ccccc2)NC(=O)[C@@H]2CCCN2C(=O)[C@H](Cc2c[nH]c3ccccc23)NC(=O)[C@H](CCSC)NC(=O)[C@H](CCCCN)NC(=O)[C@H](CCCNC(=N)N)NC(=O)[C@H](Cc2ccccc2)NC(=O)[C@H](C)NC(=O)[C@H](CCC(N)=O)NC(=O)[C@H](Cc2ccccc2)NC(=O)[C@H](C)NC(=O)[C@H](CCCNC(=N)N)NC1=O [compound 50] (cyclo(RAFQAFRKMWPFFAM)) | – | 60% | – |
| H-RDFQSFRKMWPFFAM-OH [compound 1] | 1.0 fold change | – | 54.5% |
| CSCC[C@H](NC(=O)[C@H](C)NC(=O)[C@H](Cc1ccccc1)NC(=O)[C@H](Cc1ccccc1)NC(=O)[C@@H]1CCCN1C(=O)[C@H](Cc1c[nH]c2ccccc12)NC(=O)[C@H](CCSC)NC(=O)[C@H](CCCCN)NC(=O)[C@H](CCCNC(=N)N)NC(=O)[C@H](Cc1ccccc1)NC(=O)[C@H](CO)NC(=O)[C@H](CCC(N)=O)NC(=O)[C@H](Cc1ccccc1)NC(=O)[C@H](C)NC(=O)[C@H](N)CCCNC(=N)N)C(=O)O [compound 46] (H-[dR]AFQSFRKMWPFFAM-OH; N-terminus and C-terminus assumed) | 2.7 fold change | 95% | – |
| CSCC[C@H](NC(=O)[C@H](C)NC(=O)[C@H](Cc1ccccc1)NC(=O)[C@H](Cc1ccccc1)NC(=O)[C@@H]1CCCN1C(=O)[C@H](Cc1c[nH]c2ccccc12)NC(=O)[C@H](CCSC)NC(=O)[C@H](CCCCN)NC(=O)[C@H](CCCNC(=N)N)NC(=O)[C@H](Cc1ccccc1)NC(=O)[C@H](CO)NC(=O)[C@H](CCC(N)=O)NC(=O)[C@H](Cc1ccccc1)NC(=O)[C@@H](CC(=O)O)NC(=O)[C@@H](N)CCCNC(=N)N)C(=O)O [compound 3] (H-R[dD]FQSFRKMWPFFAM-OH) | 2.8 fold change | – | – |
| CSCC[C@H](NC(=O)[C@H](CCCCN)NC(=O)[C@H](CCCNC(=N)N)NC(=O)[C@H](Cc1ccccc1)NC(=O)[C@H](CO)NC(=O)[C@H](CCC(N)=O)NC(=O)[C@H](Cc1ccccc1)NC(=O)[C@H](C)NC(=O)[C@H](N)CCCNC(=N)N)C(=O)N[C@@H](Cc1c[nH]c2ccccc12)C(=O)N1CCC[C@H]1C(=O)N[C@@H](Cc1ccccc1)C(=O)N[C@@H](Cc1ccccc1)C(=O)N[C@@H](C)C(=O)N[C@H](CCSC)C(=O)O [compound 48] (H-[dR]AFQSFRKMWPFFA[dM]-OH; N-terminus and C-terminus assumed) | 2.5 fold change | 70% | – |
